In patent publication US11390622B2, “Pyrimido-isoquinolin-quinone derivative compounds, and pharmaceutically acceptable salts, isomers and tautomers thereof; pharmaceutical composition; preparation method; and use thereof in the treatment of diseases caused by bacteria and multidrug-resistant bacteria” (Universidad de Chile, priority 2015, dated 2022):
Converted amounts (≈) assume the structure as drawn. Read-outs that look alike come from different tables or passages of the source.

Key:
[1] = tested on: Enterococcus faecalis ATCC 29212; experiment: CIM antibacterial activity screening (broth microdilution); assay type: cell-based
Description: (§1) These compounds were tested for their in vitro activity (Screening Antibacterial Activity CIM (μg/mL)) and the results are shown in Table II.
(§2) Bacteria used: A panel of prototype strains was used to screen for antibacterial activity in the compounds: • Methicillin-resistant Staphylococcus aureus ATCC© 43300. • Methicillin-sensitive Staphylococcus aureus ATCC© 29213. • Enterococcus faecalis ATCC© 29212. • Escherichia coli ATCC© 25922. • Pseudomonas aeruginosa ATCC© 27853.
(§3) The strains were planted from the ceparium (where they were preserved in 50% v/v glycerol and Brain Heart Infusion culture broth, at −20° C.) in Mueller-Hinton agar (Oxoid, England).
(§4) The concentrations to be tested ranged from 32 to 0.0625 μg/mL. The wells in columns 11 and 12 were used for positive growth control and sterility control respectively.
(§5) Once the plate was prepared, 100 uL of the bacterial suspension to be tested were added, previously adjusted to 0.5 Mc Farland, in each of the wells, excluding the wells in column 12. Finally, the plates were covered and incubated at 36° C. for 18 to 24 hours. Then, the plates were observed using contrast light to determine the concentration at which bacterial growth is inhibited (indicated by the disappearance of turbidity).
(§6) All trials were conducted three times, and results were considered valid if the internal controls of each plate (growth and sterility controls) were adequate. MIC antibiotic control (ciprofloxacin, gentamicin and vancomycin) was assessed and contrasted with the permitted quality control ranges given by CLSI. If the MIC detected in the trial was within the permitted ranges, the trial was accepted as valid.

[2] = tested on: Eschericha coli ATCC 25922; experiment: as above; assay type: cell-based; details: Escherichia coli
Description: as §1, §2, §3, §4, §5, §6

[3] = tested on: Methicillin resistant Staphylococcus aureus ATCC 43300; experiment: as above; assay type: cell-based
Description: as §1, §2, §3, §4, §5, §6

[4] = tested on: Methicillin sensitive Staphylococcus aureus ATCC 29213; experiment: as above; assay type: cell-based
Description: as §1, §2, §3, §4, §5, §6

[5] = tested on: Pseudomona aeruginosa ATCC 27853; experiment: as above; assay type: cell-based; details: Pseudomonas aeruginosa
Description: as §1, §2, §3, §4, §5, §6

[6] = ATCC29212, Enterococcus faecalis ATCC 29212, read-out: CIM
[7] = ATCC25922, Eschericha coli ATCC 25922, read-out: CIM
[8] = ATCC43300, Methicillin resistant Staphylococcus aureus ATCC 43300, read-out: CIM
[9] = ATCC29213, Methicillin sensitive Staphylococcus aureus ATCC 29213, read-out: CIM
[10] = ATCC27853, Pseudomona aeruginosa ATCC 27853, read-out: CIM
[11] = Enterococcus faecalis, ATCC29212, read-out: CIM
[12] = Staphylococcus aureus, ATCC43300, read-out: CIM
[13] = Staphylococcus aureus, ATCC29213, read-out: CIM

| Structure (SMILES) | MIC [1, 6] [µg/mL] | MIC [2, 7] [µg/mL] | MIC [3, 8] [µg/mL] | MIC [4, 9] [µg/mL] | MIC [5, 10] [µg/mL] | melting point [°C] | MIC [1, 11] [µg/mL] | MIC ([2]; ATCC25922, read-out: CIM) [µg/mL] | MIC [3, 12] [µg/mL] | MIC [4, 13] [µg/mL] | MIC ([5]; ATCC27853, read-out: CIM) [µg/mL] |
| --- | --- | --- | --- | --- | --- | --- | --- | --- | --- | --- | --- |
| CCc1nc2c(c3c1C(=O)C=CC3=O)c(=O)n(C)c(=O)n2C [Molecule 1, 6-ethyl-2,4-dimethylpyrimido[4,5-c]isoquinoline-1,3,7,10(2H,4H)-tetraone] | > 32 | > 32 | ≥ 32 | ≥ 32 | > 32 | 167.6 to 167.9 |  |  |  |  |  |
| CCc1nc2c(c3c1C(=O)C(Sc1ccccc1)=CC3=O)c(=O)n(C)c(=O)n2C [Molecule 2, 6-ethyl-2,4-dimethyl-8-(phenythio)pyrimido[4,5-c]isoquinoline-1,3,7,10(2H,4H)-tetraone] |  |  |  |  |  | 179.4 to 180 | 8 (≈ 19.6 µM) | ≥ 32 | 8 (≈ 19.6 µM) | 8 (≈ 19.6 µM) | ≥ 32 |
| CCc1nc2c(c3c1C(=O)C(Sc1ccccc1C)=CC3=O)c(=O)n(C)c(=O)n2C [Molecule 3, 6-ethyl-2,4-dimethyl-8-(o-tolylthio)pyrimido[4,5-c]isoquinoline-1,3,7,10(2H,4H)-tetraone] | ≥ 32 | ≥ 32 | 32 (≈ 75.9 µM) | 32 (≈ 75.9 µM) | ≥ 32 | 206 to 210.9 |  |  |  |  |  |
| CCc1nc2c(c3c1C(=O)C(Sc1ccccc1OC)=CC3=O)c(=O)n(C)c(=O)n2C [Molecule 4, 6-ethyl-8-(2-methoxyphenylthio)-2,4-dimethyl pyrimido[4,5-c]isoquinoline-1,3,7,10(2H,4H)-tetraone] | 4 (≈ 9.14 µM) | ≥ 32 | 2 (≈ 4.57 µM) | 4 (≈ 9.14 µM) | ≥ 32 |  |  |  |  |  |  |
| CCc1nc2c(c3c1C(=O)C(Sc1ccccc1F)=CC3=O)c(=O)n(C)c(=O)n2C [Molecule 5, 6-ethyl-8-((2-fluorophenyl)thio)-2,4-dimethyl pyrimido[4,5-c]isoquinoline-1,3,7,10(2H, 4H)-tetraone] | ≥ 32 | ≥ 32 | ≥ 32 | ≥ 32 | ≥ 32 |  |  |  |  |  |  |
| CCc1nc2c(c3c1C(=O)C(Sc1ccccc1Cl)=CC3=O)c(=O)n(C)c(=O)n2C [Molecule 6, 8-((2-chlorophenyl)thio)-6-ethyl-2,4-dimethyl pyrimido[4,5-c]isoquinoline-1,3,7,10(2H,4H)-tetraone] |  |  |  |  |  |  | ≥ 32 | ≥ 32 | ≥ 32 | ≥ 32 | ≥ 32 |
| CCc1nc2c(c3c1C(=O)C(Sc1ccccc1Br)=CC3=O)c(=O)n(C)c(=O)n2C [Molecule 7, 8-((2-bromophenyl)thio)-6-ethyl-2,4-dimethylpyrimido[4,5-c]isoquinoline-1,3,7,10(2H,4H)-tetraone] | 2 (≈ 4.11 µM) | ≥ 32 | 1 (≈ 2.06 µM) | 4 (≈ 8.22 µM) | ≥ 32 |  |  |  |  |  |  |
| CCc1nc2c(c3c1C(=O)C(Sc1cccc(C)c1)=CC3=O)c(=O)n(C)c(=O)n2C [Molecule 8, 6-ethyl-2,4-dimethyl-8-(m-tolylthio)pyrimido[4,5c]isoquinoline-1,3,7,10(2H,4H)-tetraone] | 4 (≈ 9.49 µM) | ≥ 32 | 4 (≈ 9.49 µM) | 4 (≈ 9.49 µM) | ≥ 32 | 162 to 163 |  |  |  |  |  |
| CCc1nc2c(c3c1C(=O)C(Sc1cccc(OC)c1)=CC3=O)c(=O)n(C)c(=O)n2C [Molecule 9, 6-ethyl-8-(3-methoxythiophenyl)-2,4-dimethylpyrimido[4,5-c]isoquinoline-1,3,7,10(2H,4H)-tetraone] | 4 (≈ 9.14 µM) | ≥ 32 | 4 (≈ 9.14 µM) | 8 (≈ 18.3 µM) | ≥ 32 | 179.5 to 180.5 |  |  |  |  |  |
| CCc1nc2c(c3c1C(=O)C(Sc1cccc(F)c1)=CC3=O)c(=O)n(C)c(=O)n2C [Molecule 10, 6-ethyl-8-(3-fluorothiophenyl)-2,4-dimethylpyrimido[4,5-c]isoquinoline-1,3,7,10(2H,4H)-tetraone] | 8 (≈ 18.8 µM) | ≥ 32 | 4 (≈ 9.4 µM) | 4 (≈ 9.4 µM) | ≥ 32 | 170 to 171 |  |  |  |  |  |
| CCc1nc2c(c3c1C(=O)C(Sc1cccc(Cl)c1)=CC3=O)c(=O)n(C)c(=O)n2C [Molecule 11, 8-(3-chlorothiophenyl)-6-ethyl-2,4-dimethylpyrimido[4,5-c]isoquinoline-1,3,7,10(2H,4H)-tetraone] | 4 (≈ 9.05 µM) | ≥ 32 | 2 (≈ 4.53 µM) | 32 (≈ 72.4 µM) | ≥ 32 | 156.1 to 157.1 |  |  |  |  |  |
| CCc1nc2c(c3c1C(=O)C(Sc1cccc(Br)c1)=CC3=O)c(=O)n(C)c(=O)n2C [Molecule 12, 8-(3-bromothiophenyl)-6-ethyl-2,4-dimethylpyrimido[4,5-c]isoquinoline-1,3,7,10(2, 4H)-tetraone] | 4 (≈ 8.22 µM) | ≥ 32 | 2 (≈ 4.11 µM) | 32 (≈ 65.8 µM) | ≥ 32 | 138.3 to 139.3 |  |  |  |  |  |
| CCc1nc2c(c3c1C(=O)C(Sc1ccc(C)cc1)=CC3=O)c(=O)n(C)c(=O)n2C [Molecule 13, 6-ethyl-2,4-dimethyl-8-(p-tolylthio)pyrimido[4,5-c]isoquinoline-1,3,7,10(2H,4H)-tetraone] | 16 (≈ 38 µM) | ≥ 32 | 4 (≈ 9.49 µM) | 4 (≈ 9.49 µM) | ≥ 32 | 191 to 192.3 |  |  |  |  |  |
| CCc1nc2c(c3c1C(=O)C(Sc1ccc(OC)cc1)=CC3=O)c(=O)n(C)c(=O)n2C [Molecule 14, 6-ethyl-8-(4-methoxythiophenyl)-2,4-dimethylpyrimido[4,5-c]isoquinoline-1,3,7,10(2H,4H)-tetraone] | 16 (≈ 36.6 µM) | ≥ 32 | 16 (≈ 36.6 µM) | 16 (≈ 36.6 µM) | ≥ 32 | 198.9 to 201.5 |  |  |  |  |  |
| CCc1nc2c(c3c1C(=O)C(Sc1ccc(F)cc1)=CC3=O)c(=O)n(C)c(=O)n2C [Molecule 15, 6-ethyl-8-(4-fluorothiophenyl)-2,4-dimethylpyrimido[4,5-c]isoquinoline-1,3,7,10(2H, 4H)-tetraone] | 8 (≈ 18.8 µM) | ≥ 32 | 8 (≈ 18.8 µM) | 8 (≈ 18.8 µM) | ≥ 32 | 194.9 to 195.4 |  |  |  |  |  |
| CCc1nc2c(c3c1C(=O)C(Sc1ccc(Cl)cc1)=CC3=O)c(=O)n(C)c(=O)n2C [Molecule 16, 8-(4-chlorothiophenyl)-6-ethyl-2,4-dimethylpyrimido[4,5-c]isoquinoline-1,3,7,10(2H, 4H)-tetraone] |  |  |  |  |  | 196.5 to 198.3 | 4 (≈ 9.05 µM) | ≥ 32 | 4 (≈ 9.05 µM) | 4 (≈ 9.05 µM) | ≥ 32 |
| CCc1nc2c(c3c1C(=O)C(Sc1ccc(Br)cc1)=CC3=O)c(=O)n(C)c(=O)n2C [Molecule 17, 8-(4-bromothiophenyl)-6-ethyl-2,4-dimethylpyrimido[4,5-c]isoquinoline-1,3,7,10(2H,4H)-tetraone] | 8 (≈ 16.4 µM) | ≥ 32 | 4 (≈ 8.22 µM) | 8 (≈ 16.4 µM) | ≥ 32 | 197.9 to 198.7 |  |  |  |  |  |
